Experimental data as given in US20130191098A1, “METHODS AND SYSTEMS FOR SIMULATIONS OF COMPLEX BIOLOGICAL NETWORKS USING GENE EXPRESSION INDEXING IN COMPUTATIONAL MODELS” (BOARD OF REGENTS OF THE UNIVERSITY OF TEXAS SYSTEM, priority 2010, published 2013).
Read-outs that look alike come from different tables or passages of the source.

Columns and labels:
liver cell = test system: liver cell; set-up: unit not given here; settings: cited from earlier work
skeletal muscle = test: Human clinical trial with statins: skeletal muscle cholesterol and ubiquinone (Paiva et al.); type: in vivo

Row | SMILES | Cholesterol (liver cell; DOSE 0.01) | Cholesterol (liver cell; DOSE 3) | Cholesterol (liver cell; DOSE 10) | Cholesterol (liver cell; DOSE 20) | Ubiquinone, Percent from placebo (skeletal muscle; drop) [% drop] | Cholesterol, Percent from placebo (skeletal muscle; rise) [% rise]
1 | CC(C)c1c(C(=O)Nc2ccccc2)c(-c2ccccc2)c(-c2ccc(F)cc2)n1CC[C@@H](O)C[C@@H](O)CC(=O)O [atorvastatin] | 15.52 | 14.27 | 13.71 | 13.66 | – | –
2 | CCC(C)(C)C(=O)O[C@H]1C[C@@H](C)C=C2C=C[C@H](C)[C@H](CC[C@@H]3C[C@@H](O)CC(=O)O3)[C@H]21 [simvastatin] | – | – | – | – | 134 | 139
